# Results from US20060282913A1, “Method of efficiently growing modified morning glory plant” (SKILL/VISION CO., LTD., priority 2003, published 2006).
# Test system: immature embryos of modified morning glory "aosakaikaryuubaseisaisakibotan"
# Assay: Embryoid body induction from cultured immature embryos with different phytohormones
# Assay type: cell-based, Ipomoea nil
# Details: immature embryos cultured as in Example 1A (MS medium, 60 g/l sucrose, 25° C., 2000 lux; NAA 3 mg/l), phytohormone varied
# Protocol: Immature embryos were obtained from a parent tree of modified morning glory “aosakaikaryuubaseisaisakibotan”. Each individual immature embryo was separately cultured on an MS medium containing 3 mg/l of NAA and 60 g/l of sucrose at 25° C. under 2000 lux, to thereby obtain an embryoid body from the immature embryo. Each embryoid body obtained from different immature embryo was separately cultured as a discrete strain. Subculturing was repeated using the same medium at an interval of 4 weeks.
# In substantially the same manner as in Example 1A, immature embryos were cultured except that phytohormone other than NAA, such as 4-fluorophenoxyacetic acid, 2,4-dichlorophenoxyacetic acid and picloram were used. As is apparent from a result shown in Table 4, in the case of phytohormone other than NAA, no embryoid bodies were produced, and thus mass proliferation was not attained.
row,SMILES,Number of embryoid bodies formed per immature embryo
1,"O=C(O)COc1ccc(Cl)cc1Cl [2,4-dichlorophenoxyacetic acid]",0
2,O=C(O)COc1ccc(F)cc1 [4-fluorophenoxyacetic acid],0
3,O=C(O)Cc1cccc2ccccc12 [NAA],10
4,"Nc1c(Cl)c(Cl)nc(C(=O)O)c1Cl [Picloram, picloram]",0
